Laboratory results published in US9457019B2, “Methods for inhibiting tie-2 kinase useful in the treatment of cancer” (Deciphera Pharmaceuticals, LLC, priority 2013, dated 2016).

Experiments:
TIE2 = biological target: T1, TIE2 (Homo sapiens, UniProt Q02763); assay: TIE2-transfected CHO K1 phospho-TIE2 Western blot composition washout assay; type: cell-based; conditions: incubated 2 hours at 0.1 μM-1 μM prior to being washed out
T1 construct: V5; expressed in transfected cells; host or cells: CHO-K1 (ATCC CCL-61), transient transfection with Lipofectamine LTX
Experimental: CHO-K1 cells (catalog #CCL-61) were obtained from the American Type Culture Collection (ATCC, Manassas, Va.). Briefly, cells were grown in F12K medium supplemented with 10% characterized fetal bovine serum (Invitrogen, Carlsbad, Calif.), 100 units/mL penicillin G, 100 μg/ml streptomycin, and 0.29 mg/mL L-glutamine (Invitrogen, Carlsbad, Calif.) at 37 degrees Celsius, 5% CO2, and 95% humidity. Cells were allowed to expand until reaching 70-95% confluence at which point they were subcultured or harvested for assay use.
TIE2-Transfected CHO K1 Phospho-TIE2 Western Blot Composition Washout Assay
CHO K1 cells (1×10^5 cells/well) were added to a 24-well tissue-culture treated plate in 1 mL of RPMI1640 medium supplemented with 10% characterized fetal bovine serum and 1× non-essential amino acids (Invitrogen, Carlsbad, Calif.). Cells were then incubated overnight at 37 degrees Celsius, 5% CO2, and 95% humidity. Medium was aspirated, and 0.5 mL of medium was added to each well. […] Fluorescence was detected using a Storm 840 phosphorimager (GE Healthcare, Piscataway, N.J.) in fluorescence mode. […] The 160 kDa phospho-TIE2 and total TIE2 bands were quantified using ImageQuant software (GE Healthcare, Piscataway, N.J.). […]

[1] = system: PyMT syngeneic breast cancer implant mouse model; assay: PyMT syngeneic breast cancer model primary tumor growth; type: in vivo; conditions: Compound 1 oral twice daily, paclitaxel IV every five days, 21 days
Experimental: PyMT Syngeneic Breast Cancer Model Primary Tumor Growth
Briefly, 1×10^6 cells (dissociated from PyMT tumor fragments) in 0.1 mL total volume were implanted into the fourth mammary fat pad on the left side of female mice (FVB/NJ, JAXWEST:RB05 mice from Jackson Labs). A total of 10 mice were implanted in each group. Molecular Imaging, Inc.'s Animal Care and Use Committee approved all the experimental protocols and conducted experiments in compliance with all the laws, regulations and guidelines of the National Institutes of Health (NIH). […] Animals were dosed for 21 days. Body weights and tumor measurements were recorded three times weekly. Tumor burden (mg) was estimated from caliper measurements by the formula for the volume of a prolate ellipsoid assuming unit density as: Tumor burden (mg)=(L×W^2)/2, where L and W are the respective orthogonal tumor length and width measurements (mm).

[2] = system: PyMT syngeneic breast cancer implant mouse model; assay: PyMT syngeneic breast cancer model primary tumor macrophage accumulation (F4/80 staining); type: in vivo; conditions: Compound 1 oral twice daily, paclitaxel IV every five days, 21 days
Experimental: PyMT Syngeneic Breast Cancer Model Primary Tumor Macrophage Accumulation
(§4) Briefly, 1×10^6 cells (dissociated from PyMT tumor fragments) in 0.1 mL total volume were implanted into the fourth mammary fat pad on the left side of female mice (FVB/NJ, JAXWEST:RB05 mice from Jackson Labs). A total of 10 mice were implanted in each group. […] Animals were dosed for 21 days. Body weights and tumor measurements were recorded three times weekly.
At the end of study, tumors were excised and placed in formalin. Formalin-fixed tumor samples were then placed in paraffin blocks. Formalin fixed-paraffin embedded tissue slides were deparaffinized with xylene and hydrated to distilled water through a graduated series of alcohol rinses. Antigenic retrieval was performed using Dako's PT Link Module with a Tris/EDTA buffer target retrieval solution at 95° C. for 20 minutes. Once the slides cooled down, they were loaded onto a Dako AutostainerPlusLink for immunohistochemical staining at room temperature with F4/80 and CD31 antibodies, to stain for macrophages and endothelial cells, respectively. Endogenous peroxidase and alkaline phosphatase activity in the tissues was quenched with a Dual Endogenous Enzyme Block solution (Dako, S2003) for 5 minutes. […] Slides were scored for F4/80 staining using a scale of 0, no visible staining; 1, weak staining; 2, moderate staining; 3 strong staining.

[3] = system: HMVEC capillary tube formation; assay: HMVEC capillary tube formation assay; type: cell-based; conditions: Homo sapiens, ANG1-stimulated, 18 hours, read-out: IC50 value for inhibition of ANG1-stimulated HMVEC capillary tube formation
Experimental: HMVEC (Human microvascular endothelial cells; Catalog #PCS-110-010) cells were obtained from the American Type Culture Collection (ATCC, Manassas, Va.). Briefly, cells were grown in EGM-2 MV (Lonza, Walkersville, Md.) at 37 degrees Celsius, 5% CO2, and 95% humidity. Cells were allowed to expand until reaching 90-95% saturation at which point they were subcultured or harvested for assay use.
HMVEC Capillary Tube Formation Assay
HMVEC cells (1.5×10^4 cells/well) mixed with test composition or DMSO control and the appropriate growth factor (ANG1 or ANG2) or control were added to a 96-well tissue-culture treated plate coated with growth-factor reduced Matrigel in 0.1 mL of EBM-2 basal medium (Lonza, Walkersville, Md.). Cells were then incubated for 18 hours at 37 degrees Celsius, 5% CO2, and 95% humidity. Media was then gently aspirated and wells were gently washed with 0.1 mL EBM-2 basal medium. Media was again aspirated and 1 μM Calcein AM solution (Invitrogen, Carlsbad, Calif.) in basal medium was added to each well to fluorescently label live cells. Cells were then incubated for 30 minutes at 37 degrees Celsius, 5% CO2, and 95% humidity. Media was aspirated and wells were gently washed with phosphate-buffered saline twice. […] Data was analyzed using Prism software (GraphPad Software, San Diego, Calif.) to calculate IC50 values.

[4] = system: PyMT syngeneic breast cancer implant mouse model; assay: PyMT syngeneic breast cancer model primary tumor TIE2 cell accumulation (TIE2 staining); type: in vivo; conditions: Compound 1 oral twice daily, paclitaxel IV every five days, 21 days
Experimental: as §4
At the end of study, tumors were excised and placed in formalin. Formalin-fixed tumor samples were then placed in paraffin blocks. The experimental formalin fixed-paraffin embedded tissue slides were deparaffinized with xylene and hydrated to distilled water through a graduated series of alcohol rinses. Antigenic retrieval was performed using Dako's PT Link Module with a Citrate pH 6 buffer target retrieval solution at 95° C. for 20 minutes. Once the slides cooled down, they were loaded onto a Dako AutostainerPlusLink for immunohistochemical staining at room temperature with both TIE2 and CD31 antibodies. Endogenous peroxidase and alkaline phosphatase activity in the tissues was quenched with a Dual Endogenous Enzyme Block solution (Dako, S2003) for 5 minutes. Non-specific protein binding was blocked with serum free Protein Block (Dako, X0909) for 5 minutes. […] Slides were scored for TIE2 staining using a scale of 0, no visible staining; 1, weak staining; 2, moderate staining; 3 strong staining.

[5] = system: PyMT syngeneic breast cancer implant mouse model; assay: PyMT syngeneic breast cancer model lung metastasis evaluation, Compound 1 dosed intermittently with eribulin; type: in vivo; conditions: Compound 1 oral twice weekly, eribulin IV three times weekly, 12 days
Experimental: (§1) PyMT Syngeneic Breast Cancer Model Lung Metastasis Evaluation
(§2) Briefly, 1×10^6 cells (dissociated from PyMT tumor fragments and stored frozen in cell-freezing medium) in 0.1 mL total volume were implanted into the fourth mammary fat pad on the left side of female mice (FVB/NJ, JAXWEST:RB05 mice from Jackson Labs). A total of three mice were implanted in each group. Molecular Imaging, Inc.'s Animal Care and Use Committee approved all the experimental protocols and conducted experiments in compliance with all the laws, regulations and guidelines of the National Institutes of Health (NIH). […] Animals were dosed for 12 days. Body weights and tumor measurements were recorded three times weekly.
(§3) At the end of study, lung tissues were excised and placed in formalin. Formalin-fixed lung samples were then placed in paraffin blocks. Each lung block had three slides with two levels per slide cut and stained with Hematoxylin and Eosin. Metastatic lung nodules were counted via microscopy.

[6] = system: PyMT syngeneic breast cancer implant mouse model; assay: PyMT syngeneic breast cancer model survival evaluation; type: in vivo; conditions: Compound 1 oral once or twice weekly, eribulin at 0.1 mg/kg IV three times weekly; tumors resected three days after treatment began
Experimental: PyMT Syngeneic Breast Cancer Model Survival Evaluation
Briefly, 1×10^6 cells (dissociated from PyMT tumor fragments and stored frozen in cell-freezing medium) in 0.1 mL total volume were implanted into the fourth mammary fat pad on the left side of female mice (FVB/NJ, JAXWEST:RB05 mice from Jackson Labs). A total of ten mice were implanted in each group. Molecular Imaging, Inc.'s Animal Care and Use Committee approved all the experimental protocols and conducted experiments in compliance with all the laws, regulations and guidelines of the National Institutes of Health (NIH). […] Tumors were then resected three days after treatment began. Animals were then dosed for the duration of the survival experiment. Body weights and tumor measurements were recorded three times weekly.

[7] = system: PyMT syngeneic breast cancer implant mouse model; assay: PyMT syngeneic breast cancer model lung metastasis evaluation, Compound 1 dosed intermittently with paclitaxel; type: in vivo; conditions: Compound 1 oral twice weekly, paclitaxel IV every five days, 12 days
Experimental: as §1, §2, §3

T1 sequence (Q02763 23-1124): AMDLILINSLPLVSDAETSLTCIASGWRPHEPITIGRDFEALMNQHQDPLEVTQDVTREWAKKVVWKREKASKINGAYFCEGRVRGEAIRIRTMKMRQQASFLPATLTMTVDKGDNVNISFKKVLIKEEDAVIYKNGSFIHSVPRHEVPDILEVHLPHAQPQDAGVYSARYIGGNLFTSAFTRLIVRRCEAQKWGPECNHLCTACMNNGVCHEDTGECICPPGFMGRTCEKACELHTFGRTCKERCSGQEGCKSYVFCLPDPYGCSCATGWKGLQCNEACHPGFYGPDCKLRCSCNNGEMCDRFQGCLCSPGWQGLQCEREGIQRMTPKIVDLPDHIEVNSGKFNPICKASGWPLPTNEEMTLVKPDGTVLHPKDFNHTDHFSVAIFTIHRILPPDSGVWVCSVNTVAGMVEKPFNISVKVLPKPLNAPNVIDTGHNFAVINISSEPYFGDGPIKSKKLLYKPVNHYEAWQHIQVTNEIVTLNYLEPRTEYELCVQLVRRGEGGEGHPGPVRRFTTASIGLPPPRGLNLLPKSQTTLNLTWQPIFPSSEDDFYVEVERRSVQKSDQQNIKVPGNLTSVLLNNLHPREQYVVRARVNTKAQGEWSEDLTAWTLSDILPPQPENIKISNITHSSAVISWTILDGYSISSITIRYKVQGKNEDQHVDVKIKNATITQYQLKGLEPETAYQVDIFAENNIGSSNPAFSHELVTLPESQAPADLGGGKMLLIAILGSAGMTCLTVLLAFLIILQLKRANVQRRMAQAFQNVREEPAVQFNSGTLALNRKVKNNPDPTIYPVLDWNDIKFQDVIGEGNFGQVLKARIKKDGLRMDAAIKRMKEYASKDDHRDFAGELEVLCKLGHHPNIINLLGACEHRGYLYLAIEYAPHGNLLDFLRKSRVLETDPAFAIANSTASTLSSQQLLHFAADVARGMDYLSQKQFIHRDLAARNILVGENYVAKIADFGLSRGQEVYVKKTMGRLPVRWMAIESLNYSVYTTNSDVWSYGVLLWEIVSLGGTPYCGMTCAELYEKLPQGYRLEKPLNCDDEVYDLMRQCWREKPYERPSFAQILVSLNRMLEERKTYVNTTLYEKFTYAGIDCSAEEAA

duration of >50% inhibition of phospho-TIE2 levels after washout (TIE2)	inhibition of phospho-TIE2 levels after washout (TIE2; maintained for >24 hours)	IC50 [3]	Compound	primary tumor growth (tumor burden), FIG. 1 [1]	macrophage accumulation at the primary tumor (F4/80 staining), FIG. 2 [2]	TIE2-expressing cell accumulation at the primary tumor (TIE2 staining), FIG. 3 [4]	lung metastasis (metastatic lung nodules), FIG. 6 [5]	survival, FIG. 7 [6]	lung metastasis (metastatic lung nodules), FIG. 5 [7]
> 24 h	> 50%	6.9 nM	CNC(=O)c1cc(Oc2ccc(NC(=O)Nc3cc(C(C)(C)C)nn3-c3ccc4ncccc4c3)c(F)c2)ccn1.Cc1ccc(S(=O)(=O)O)cc1 [Compound 1, 1-(3-tert-butyl-1-(quinolin-6-yl)-1H-pyrazol-5-yl)-3-(2-fluoro-4-(2-(methylcarbamoyl)pyridin-4-yloxy)phenyl)urea para-toluene sulfonic acid salt]	tumor growth inhibition	decrease in macrophage accumulation	decrease in TIE2-expressing cell accumulation	–	–	–
–	–	–	C=C1C[C@@H]2CC[C@@]34C[C@H]5O[C@H]6[C@@H](O3)[C@H]3O[C@H](CC[C@@H]3O[C@H]6[C@H]5O4)CC(=O)C[C@@H]3[C@@H](OC)[C@@H](C[C@H](O)CN)O[C@H]3C[C@H]3O[C@@H](CC[C@@H]1O2)C[C@@H](C)C3=C [eribulin]	–	–	–	decrease (or increase at low dose) in lung metastasis	no increase in survival	–
–	–	–	CC(=O)O[C@H]1C(=O)[C@@]2(C)[C@H]([C@H](OC(=O)c3ccccc3)[C@]3(O)C[C@H](OC(=O)[C@H](O)[C@@H](NC(=O)c4ccccc4)c4ccccc4)C(C)=C1C3(C)C)[C@]1(OC(C)=O)CO[C@@H]1C[C@@H]2O [paclitaxel, reference compound]	tumor growth inhibition	did not decrease macrophage accumulation	did not decrease TIE2-expressing cell accumulation	–	–	decrease in lung metastasis
